Earlier results, collected in patent publication US11911346B2, “Orally administrated therapeutic for treating mild cognitive impairment (MCI) and improving human cognitive function” (BrainCare LLC, priority 2021, dated 2024).

Tested on: salivary testosterone
Settings: olfactory exposure to 3% BCP over 20 minutes, women with low libido; cited from earlier work

C=C1CC/C=C(\C)CC[C@@H]2[C@@H]1CC2(C)C [BCP, beta-caryophyllene]
Salivary testosterone vs. control period: increased
